In publication PMC9090415, “Discovery of small molecule inhibitors of Plasmodium falciparum apicoplast DNA polymerase” (Journal of Enzyme Inhibition and Medicinal Chemistry, 2022):

Target: P. falciparum apicoplast DNA polymerase (Pf-apPOL) (Plasmodium falciparum, UniProt Q8ILY1)
Assay: Fluorescence-based high-throughput DNA polymerase assay (molecular beacon), primary screen and dose-response;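 as to % inhibition ApPOL 90': test concentration in µM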;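 as to % inhibition apPOL 180': test concentration in µM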
Type: biochemical
Summary of the method: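 Single-point screening used 10 µM compound with 20 nM polymerase, 20 nM hairpin substrate and 6 µM dNTPs for 90 min at 25 °C. Confirmatory titrations (2.5–80 µM) followed fluorescence at three times, and IC50 was derived from a fit including a cooperativity term n.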

[1] = primary screen value of the 186 hits; unit not given; 90 min, 10 µM
[2] = supplemental file 2, sheet IC50 nontoxic compounds; Pf-apPOL

Sequence of P. falciparum apicoplast DNA polymerase (Pf-apPOL) (Q8ILY1 entry or part of it): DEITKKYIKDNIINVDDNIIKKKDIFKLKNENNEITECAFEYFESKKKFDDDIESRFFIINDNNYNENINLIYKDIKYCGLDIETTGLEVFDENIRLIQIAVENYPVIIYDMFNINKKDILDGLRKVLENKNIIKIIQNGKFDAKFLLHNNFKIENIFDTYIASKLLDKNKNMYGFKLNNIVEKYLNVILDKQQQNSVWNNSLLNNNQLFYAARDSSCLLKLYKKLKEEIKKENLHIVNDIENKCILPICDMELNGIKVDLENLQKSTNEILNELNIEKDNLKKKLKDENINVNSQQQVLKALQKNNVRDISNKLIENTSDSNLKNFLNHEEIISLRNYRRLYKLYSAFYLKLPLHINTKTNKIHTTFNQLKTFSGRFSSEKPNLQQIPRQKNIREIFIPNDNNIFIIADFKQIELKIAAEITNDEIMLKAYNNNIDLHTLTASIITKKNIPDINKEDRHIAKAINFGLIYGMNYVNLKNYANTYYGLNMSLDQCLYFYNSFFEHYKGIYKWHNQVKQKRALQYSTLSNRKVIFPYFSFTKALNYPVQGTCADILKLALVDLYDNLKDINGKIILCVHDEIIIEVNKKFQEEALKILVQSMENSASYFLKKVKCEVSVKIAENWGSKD

`CCCCOC(=O)CCCCCN1C(=O)C(=Cc2ccc(OC)cc2)SC1=S` [Molecule 75, CCCCOC(=O)CCCCCN1C(=S)SC(=Cc2ccc(cc2)OC)C1=O] was tested, and the “% inhibition Apo pol 10'” value (DRC-1; 10'; concentration 2.5) was -1.1804%, the “% inhibition Apo pol 10'” value (DRC-1; 10'; concentration 5) was 1.705% and the “% inhibition Apo pol 10'” value (DRC-1; 10'; concentration 10) was 11.988%. The “% inhibition Apo pol 10'” value (DRC-1; 10'; concentration 20) was 12.7699%, the “% inhibition Apo pol 10'” value (DRC-1; 10'; concentration 40) was 17.437% and the “% inhibition Apo pol 10'” value (DRC-1; 10'; concentration 80) was 85.0535%. The “% inhibition Apol 90'” value (DRC-1; 90'; concentration 2.5) was 3.6918%, the “% inhibition Apol 90'” value (DRC-1; 90'; concentration 5) was 7.9015% and the “% inhibition Apol 90'” value (DRC-1; 90'; concentration 10) was 19.2889%. The “% inhibition Apol 90'” value (DRC-1; 90'; concentration 20) was 19.2951%, the “% inhibition Apol 90'” value (DRC-1; 90'; concentration 40) was 23.7139% and the “% inhibition Apol 90'” value (DRC-1; 90'; concentration 80) was 84.541%. For the same molecule, the “% inhibition apPOL 180'” value (DRC-1; 180'; concentration 2.5) was 6.465%, the “% inhibition apPOL 180'” value (DRC-1; 180'; concentration 5) was 11.5498% and the “% inhibition apPOL 180'” value (DRC-1; 180'; concentration 10) was 23.7615%. For the same molecule, the “% inhibition apPOL 180'” value (DRC-1; 180'; concentration 20) was 23.8231%, the “% inhibition apPOL 180'” value (DRC-1; 180'; concentration 40) was 28.3946% and the “% inhibition apPOL 180'” value (DRC-1; 180'; concentration 80) was 81.7032%. The “% inhibition Apo pol 5'” value (DRC-2; 5'; concentration 2.5) was -2%, the “% inhibition Apo pol 5'” value (DRC-2; 5'; concentration 5) was 3% and the “% inhibition Apo pol 5'” value (DRC-2; 5'; concentration 10) was 20%. The “% inhibition Apo pol 5'” value (DRC-2; 5'; concentration 20) was 30%, the “% inhibition Apo pol 5'” value (DRC-2; 5'; concentration 40) was 45% and the “% inhibition Apo pol 5'” value (DRC-2; 5'; concentration 80) was 46%. For the same molecule, the “% inhibition Apol 40'” value (DRC-2; 40'; concentration 2.5) was -0.735%, the “% inhibition Apol 40'” value (DRC-2; 40'; concentration 5) was 5% and the “% inhibition Apol 40'” value (DRC-2; 40'; concentration 10) was 24%. The “% inhibition Apol 40'” value (DRC-2; 40'; concentration 20) was 42%, the “% inhibition Apol 40'” value (DRC-2; 40'; concentration 40) was 66% and the “% inhibition Apol 40'” value (DRC-2; 40'; concentration 80) was 69%. The “% inhibition ApPOL 90'” value (DRC-2; 90'; concentration 2.5) was -1%, the “% inhibition ApPOL 90'” value (DRC-2; 90'; concentration 5) was 6.48% and the “% inhibition ApPOL 90'” value (DRC-2; 90'; concentration 10) was 25%. For the same molecule, the “% inhibition ApPOL 90'” value (DRC-2; 90'; concentration 20) was 43%, the “% inhibition ApPOL 90'” value (DRC-2; 90'; concentration 40) was 71% and the “% inhibition ApPOL 90'” value (DRC-2; 90'; concentration 80) was 74%. The “% inhibition apPOL 180'” value (DRC-2; 180'; concentration 2.5) was -5%, the “% inhibition apPOL 180'” value (DRC-2; 180'; concentration 5) was 0.541% and the “% inhibition apPOL 180'” value (DRC-2; 180'; concentration 10) was 18%. For the same molecule, the “% inhibition apPOL 180'” value (DRC-2; 180'; concentration 20) was 40%, the “% inhibition apPOL 180'” value (DRC-2; 180'; concentration 40) was 76% and the “% inhibition apPOL 180'” value (DRC-2; 180'; concentration 80) was 79%. The “DNA Pol” value [1] was 27 and the “DNA Pol” value (primary screen value, head "DNA Pol", unit not given; 90 min, 10 µM) was 27.

For `COc1ccc2c(c1)CCc1c-2nc2ccc(Br)cc2c1C(=O)O` [KU0059417], the “DNA Pol” value ('DNA Pol'; screening value, unit not given; 90 min, 10 µM) was 29, the “% inhibition Apo pol 10'” value (DRC-1; 10'; concentration 2.5) was 25.2919% and the “% inhibition Apo pol 10'” value (DRC-1; 10'; concentration 5) was 33.9692%. The “% inhibition Apo pol 10'” value (DRC-1; 10'; concentration 10) was 45.4557%, the “% inhibition Apo pol 10'” value (DRC-1; 10'; concentration 20) was 55.4931% and the “% inhibition Apo pol 10'” value (DRC-1; 10'; concentration 40) was 69.0477%. The “% inhibition Apo pol 10'” value (DRC-1; 10'; concentration 80) was 75.6745%, the “% inhibition Apol 90'” value (DRC-1; 90'; concentration 2.5) was 11.1508% and the “% inhibition Apol 90'” value (DRC-1; 90'; concentration 5) was 18.7068%. For the same molecule, the “% inhibition Apol 90'” value (DRC-1; 90'; concentration 10) was 30.3823%, the “% inhibition Apol 90'” value (DRC-1; 90'; concentration 20) was 41.2946% and the “% inhibition Apol 90'” value (DRC-1; 90'; concentration 40) was 54.5207%. For the same molecule, the “% inhibition Apol 90'” value (DRC-1; 90'; concentration 80) was 62.4129%, the “% inhibition apPOL 180'” value (DRC-1; 180'; concentration 2.5) was 3.289% and the “% inhibition apPOL 180'” value (DRC-1; 180'; concentration 5) was 10.0066%. For the same molecule, the “% inhibition apPOL 180'” value (DRC-1; 180'; concentration 10) was 20.2825%, the “% inhibition apPOL 180'” value (DRC-1; 180'; concentration 20) was 30.8503% and the “% inhibition apPOL 180'” value (DRC-1; 180'; concentration 40) was 43.5885%. The “% inhibition apPOL 180'” value (DRC-1; 180'; concentration 80) was 50.0867%, the “% inhibition Apo pol 5'” value (DRC-2, 5', concentration 2.5) was 21% and the “% inhibition Apo pol 5'” value (DRC-2, 5', concentration 5) was 27%. The “% inhibition Apo pol 5'” value (DRC-2, 5', concentration 10) was 34%, the “% inhibition Apo pol 5'” value (DRC-2, 5', concentration 20) was 40% and the “% inhibition Apo pol 5'” value (DRC-2, 5', concentration 40) was 53%. For the same molecule, the “% inhibition Apo pol 5'” value (DRC-2, 5', concentration 80) was 60%, the “% inhibition Apol 40'” value (DRC-2, 40', concentration 2.5) was 17% and the “% inhibition Apol 40'” value (DRC-2, 40', concentration 5) was 24%. The “% inhibition Apol 40'” value (DRC-2, 40', concentration 10) was 33%, the “% inhibition Apol 40'” value (DRC-2, 40', concentration 20) was 39% and the “% inhibition Apol 40'” value (DRC-2, 40', concentration 40) was 54%. The “% inhibition Apol 40'” value (DRC-2, 40', concentration 80) was 68%, the “% inhibition ApPOL 90'” value (DRC-2, 90', concentration 2.5) was 15% and the “% inhibition ApPOL 90'” value (DRC-2, 90', concentration 5) was 22%. For the same molecule, the “% inhibition ApPOL 90'” value (DRC-2, 90', concentration 10) was 31%, the “% inhibition ApPOL 90'” value (DRC-2, 90', concentration 20) was 37% and the “% inhibition ApPOL 90'” value (DRC-2, 90', concentration 40) was 52%. The “% inhibition ApPOL 90'” value (DRC-2, 90', concentration 80) was 69%, the “% inhibition apPOL 180'” value (DRC-2, 180', concentration 2.5) was 7% and the “% inhibition apPOL 180'” value (DRC-2, 180', concentration 5) was 13%. For the same molecule, the “% inhibition apPOL 180'” value (DRC-2, 180', concentration 10) was 20%, the “% inhibition apPOL 180'” value (DRC-2, 180', concentration 20) was 25% and the “% inhibition apPOL 180'” value (DRC-2, 180', concentration 40) was 42%. For the same molecule, the “% inhibition apPOL 180'” value (DRC-2, 180', concentration 80) was 64% and the “DNA Pol” value (primary screen hit value, DNA Pol (186 hits); 90 min, 10 µM) was 29.

With `CC(NC(=O)Cc1cc(=O)[nH]c(SCc2cccc(Cl)c2)n1)c1ccccc1` (stereo not shown) [Molecule 67] the IC50 [2] was 23.3 µM.

For `COc1ccccc1CCC(=O)N1CCc2c(nc3cc(-c4ccccc4)[nH]n3c2=O)C1` [Molecule 7], the IC50 [2] was 7.2 µM.

`CCCCCCCCCCCC1SCC(C(=O)O)N1C(C)=O` (stereo not shown) [Molecule 72] was tested, and the “% inhibition Apo pol 10'” value (DRC-1; 10'; concentration 2.5) was 3.482%, the “% inhibition Apo pol 10'” value (DRC-1; 10'; concentration 5) was 5.699% and the “% inhibition Apo pol 10'” value (DRC-1; 10'; concentration 10) was 15.2619%. The “% inhibition Apo pol 10'” value (DRC-1; 10'; concentration 20) was 24.1814%, the “% inhibition Apo pol 10'” value (DRC-1; 10'; concentration 40) was 35.0794% and the “% inhibition Apo pol 10'” value (DRC-1; 10'; concentration 80) was 89.6133%. The “% inhibition Apol 90'” value (DRC-1; 90'; concentration 2.5) was 2.632%, the “% inhibition Apol 90'” value (DRC-1; 90'; concentration 5) was 5.518% and the “% inhibition Apol 90'” value (DRC-1; 90'; concentration 10) was 12.9803%. The “% inhibition Apol 90'” value (DRC-1; 90'; concentration 20) was 20.4329%, the “% inhibition Apol 90'” value (DRC-1; 90'; concentration 40) was 28.5438% and the “% inhibition Apol 90'” value (DRC-1; 90'; concentration 80) was 88.679%. For the same molecule, the “% inhibition apPOL 180'” value (DRC-1; 180'; concentration 2.5) was -2.715%, the “% inhibition apPOL 180'” value (DRC-1; 180'; concentration 5) was -0.6083% and the “% inhibition apPOL 180'” value (DRC-1; 180'; concentration 10) was 5.5577%. The “% inhibition apPOL 180'” value (DRC-1; 180'; concentration 20) was 11.4894%, the “% inhibition apPOL 180'” value (DRC-1; 180'; concentration 40) was 17.8626% and the “% inhibition apPOL 180'” value (DRC-1; 180'; concentration 80) was 86.0518%. The “% inhibition Apo pol 5'” value (DRC-2; 5'; concentration 2.5) was 13%, the “% inhibition Apo pol 5'” value (DRC-2; 5'; concentration 5) was 16% and the “% inhibition Apo pol 5'” value (DRC-2; 5'; concentration 10) was 26%. For the same molecule, the “% inhibition Apo pol 5'” value (DRC-2; 5'; concentration 20) was 38%, the “% inhibition Apo pol 5'” value (DRC-2; 5'; concentration 40) was 54% and the “% inhibition Apo pol 5'” value (DRC-2; 5'; concentration 80) was 59%. For the same molecule, the “% inhibition Apol 40'” value (DRC-2; 40'; concentration 2.5) was 10%, the “% inhibition Apol 40'” value (DRC-2; 40'; concentration 5) was 15% and the “% inhibition Apol 40'” value (DRC-2; 40'; concentration 10) was 29%. For the same molecule, the “% inhibition Apol 40'” value (DRC-2; 40'; concentration 20) was 44%, the “% inhibition Apol 40'” value (DRC-2; 40'; concentration 40) was 65% and the “% inhibition Apol 40'” value (DRC-2; 40'; concentration 80) was 76%. For the same molecule, the “% inhibition ApPOL 90'” value (DRC-2; 90'; concentration 2.5) was 6%, the “% inhibition ApPOL 90'” value (DRC-2; 90'; concentration 5) was 13% and the “% inhibition ApPOL 90'” value (DRC-2; 90'; concentration 10) was 26%. The “% inhibition ApPOL 90'” value (DRC-2; 90'; concentration 20) was 43%, the “% inhibition ApPOL 90'” value (DRC-2; 90'; concentration 40) was 67% and the “% inhibition ApPOL 90'” value (DRC-2; 90'; concentration 80) was 81%. The “% inhibition apPOL 180'” value (DRC-2; 180'; concentration 2.5) was 0.516%, the “% inhibition apPOL 180'” value (DRC-2; 180'; concentration 5) was 5% and the “% inhibition apPOL 180'” value (DRC-2; 180'; concentration 10) was 17%. The “% inhibition apPOL 180'” value (DRC-2; 180'; concentration 20) was 34%, the “% inhibition apPOL 180'” value (DRC-2; 180'; concentration 40) was 64% and the “% inhibition apPOL 180'” value (DRC-2; 180'; concentration 80) was 84%. The “% inhibition Apo pol 5'” value (conc. 2.5; 5'; DRC-2) was 13%, the “% inhibition ApPOL 90'” value (conc. 5; 90'; DRC-2) was 13% and the “% inhibition Apo pol 5'” value (conc. 10; 5'; DRC-2) was 26%. The “% inhibition ApPOL 90'” value (conc. 10; 90'; DRC-2) was 26%, the “DNA Pol” value (primary screen value by plate and well; 90 min, 10 µM) was 90 and the “DNA Pol” value [1] was 90. It also gave an IC50 [2] of 48.9 µM.
